The record followed here is publication PMC7352507, “The Genome Analysis of Methylobacterium populi YC-XJ1 with Diverse Xenobiotics Biodegrading Capacity and Degradation Characteristics of Related Hydrolase” (International Journal of Molecular Sciences, 2020).

Experiment [1] relates to T1, DEPH1.
T1 construct: full length, 280 aa, 29,714 Da, no signal peptide; pET-32a(+) BamHI/HindIII, Trx/His/S tags kept (about 48 kDa on SDS-PAGE); E. coli
The experiment can be described thus: residual substrate (HPLC or GC), Lineweaver-Burk. The class given is biochemical, Methylorubrum populi. The following applies: 10 mM PBS pH 7.0, 25 °C; 500 µg enzyme; DEP 0.2-2.4 mM.

Experiment [2] relates to T2, QPEH2.
T2 construct: full length, 367 aa, 39,840 Da, no signal peptide; pET-32a(+) BamHI/HindIII, fused tags (His/S stated; about 45 kDa on SDS-PAGE) kept; E. coli
The experiment can be described thus: HPLC of residual substrate, Lineweaver-Burk. The class given is biochemical, Methylorubrum populi. As to conditions: 10 mM PBS pH 7.0, 25 °C; 120 µg enzyme; QPE 0.2-2.4 mM.

`CCOC(=O)c1ccccc1C(=O)OCC` [diethyl phthalate]: the Michaelis-Menten constant (Km) (as a rule, the concentration of substrate that gives half-maximal velocity) in experiment [1] turned out to be 1.04 ± 0.27 mM. For `CCOC(=O)[C@@H](C)Oc1ccc(Oc2cnc3cc(Cl)ccc3n2)cc1` [quizalofop-p-ethyl], in experiment [2], the Km came out at 83.9 ± 30.3 µM.
